Assay [1] concerns the target T1, human calcitonin receptor (CTR) (Homo sapiens, UniProt P30988).
T1 construct: expressed in transfected cells; host or cells: COS-7 (COS7-human CTR Clone #2)
T1 sequence (P30988 25-474): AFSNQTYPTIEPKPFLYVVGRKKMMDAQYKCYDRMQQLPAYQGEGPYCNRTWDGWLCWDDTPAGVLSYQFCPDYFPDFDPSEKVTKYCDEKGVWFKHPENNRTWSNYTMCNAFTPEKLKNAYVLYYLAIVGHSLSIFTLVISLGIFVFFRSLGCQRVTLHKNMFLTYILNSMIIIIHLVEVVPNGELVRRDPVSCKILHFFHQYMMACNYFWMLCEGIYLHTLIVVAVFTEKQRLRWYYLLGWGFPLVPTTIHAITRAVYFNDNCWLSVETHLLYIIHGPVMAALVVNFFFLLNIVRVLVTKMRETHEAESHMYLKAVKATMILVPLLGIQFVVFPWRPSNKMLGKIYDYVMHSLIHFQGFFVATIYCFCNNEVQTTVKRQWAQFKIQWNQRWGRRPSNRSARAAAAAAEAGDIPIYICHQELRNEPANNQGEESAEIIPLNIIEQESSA
Nature of the assay: Calcitonin receptor (CTR) cAMP Assay. It is filed as cell-based. Conditions: COS7-human CTR Clone #2 cells, cAMP dynamic 2 kit; read-out: Calcitonin Receptor cAMP Stimulation Activity: EC50. The method in brief:
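COS-7 cells stably expressing human CTR (2000 cells/well) treated with 4-fold serially diluted compounds in HBSS/20 mM HEPES/0.5 mM IBMX/0.1% casein, 30 min at 37° C. cAMP quantified by HTRF (cAMP-d2 plus anti-cAMP cryptate, 1 h RT), fluorescence read at 665 and 615 nm.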

For assay [2], the target named is human calcitonin receptor (CTR) and RAMP3 (AMY3) (Homo sapiens, UniProt O60896+P30988). Nature of the assay: Amylin Receptor cAMP Assay II. The format is cell-based. The conditions noted are these: COS-7/AMY3 cells, cAMP dynamic 2 kit, read-out: Amylin Receptor cAMP Stimulation Activity: EC50. The method in brief: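 COS-7 cells stably co-expressing human CTR and RAMP3 (AMY3) were treated with 4-fold serially diluted compounds at 2000 cells/well in HBSS with 20 mM HEPES, 0.5 mM IBMX and 0.1% casein for 30 min at 37 °C. cAMP was measured by HTRF (cAMP-d2 plus anti-cAMP cryptate, 1 h at RT) with reads at 665/615 nm.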

pEC50: −log10 of the molar value.

The source of these data is patent US20250051355A1, “COMPOUNDS, COMPOSITIONS, AND METHODS” (ACONCAGUA BIO, INC., priority 2023, published 2025).

Chain of human calcitonin receptor (CTR) and RAMP3 (AMY3) (O60896 24-148, one chain of several): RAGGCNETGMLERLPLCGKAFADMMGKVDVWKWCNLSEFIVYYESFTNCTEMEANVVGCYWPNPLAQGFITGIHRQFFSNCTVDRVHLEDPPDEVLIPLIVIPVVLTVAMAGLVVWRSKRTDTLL

Regarding `Cc1nnc(-c2c(CCC3CCOCC3)nc3c(c2-c2ccc4c(c2)oc(=O)n4Cc2ccc(C#N)c(F)c2)C(=O)N2CCOCC32O)o1` (stereo not shown) [Compound 135, 4-[(6-(4a-hydroxy-7-(5-methyl-1,3,4-oxadiazol-2-yl)-9-oxo-6-[2-(tetrahydro-2H-pyran-4-yl)ethyl]-1,2,4,4a-tetrahydro-9H-3-oxa-5,9a-diazafluoren-8-yl}-2-oxo-1,3-benzoxazol-3-yl)methyl]-2-fluorobenzonitrile], the pEC50 – broadly, the EC50 on a negative log10 scale, so that one unit is a factor of ten – was 8.27 in assay [1] and 6.78 in assay [2].

Take `Cc1nnc(-c2c(CCC3CC(C)OC(C)C3)nc3c(c2-c2cc4ccnc(N[C@@H]5CCc6ncccc65)c4s2)S(=O)(=O)CC3C(C)C)o1` (stereo partly drawn) [Compound 136, N—(R)-4-aza-1-indanyl(2-(5-[2-(2,6-dimethyltetrahydro-2H-pyran-4-yl)ethyl]-3-isopropyl-6-(5-methyl-1,3,4-oxadiazol-2-yl)-1,1-dioxo-1λ^6-thia-4-aza-7-indanyl}-1-thia-6-aza-7-indenyl)amine]: the pEC50 in assay [1] was 7.46; in assay [2], 6.51.

For `Cc1nnc(-c2c(CCC3CCOCC3)nc3c(c2-c2cc4ccnc(Nc5ccc(F)c(F)c5)c4s2)S(=O)(=O)CC3C(C)C)o1` (stereo not shown) [Compound 137], the negative-log EC50 (pEC50) is 6.56 in assay [1] and 5.71 in assay [2].

Turning to `Cc1nnc(-c2c(CCC3CCOCC3)nc3c(c2-c2cc4ccnc(Cc5ccc(F)c(F)c5)c4s2)S(=O)(=O)CC3C(C)C)o1` (stereo not shown) [Compound 138, 7-(7-[(3,4-difluorophenyl)methyl]-1-thia-6-aza-2-indenyl}-3-isopropyl-6-(5-methyl-1,3,4-oxadiazol-2-yl)-5-[2-(tetrahydro-2H-pyran-4-yl)ethyl]-1λ^6-thia-4-aza-1,1-indandione], the figures for the pEC50 in assay [1] and in assay [2] were 6.94 and 6.06, respectively.

Turning to `Cc1nnc(-c2c(CCc3ccc(F)cc3)nc3c(c2-c2cc4ccnc(N[C@@H]5CCc6ncccc65)c4s2)c(=O)n2n3CCC2)o1` [Compound 139, 9-(7-[(R)-4-aza-1-indanylamino]-1-thia-6-aza-2-indenyl}-11-[2-(p-fluorophenyl)ethyl]-10-(5-methyl-1,3,4-oxadiazol-2-yl)-2,6,12-triazatricyclo[6.4.0.0^2,6]dodeca-1(8),9,11-trien-7-one], the pEC50 in assay [1] is 8.06; in assay [2] it was 6.82.

Regarding `Cc1nnc(-c2c(CCc3ccc(F)cc3)nc3c(c2-c2ccc4c(c2)oc(=O)n4C(C)c2ccc(C#N)c(F)c2)c(=O)n2n3CCC2)o1` (stereo not shown) [Compound 140, 2-fluoro-4-[1-(6-(11-[2-(p-fluorophenyl)ethyl]-10-(5-methyl-1,3,4-oxadiazol-2-yl)-7-oxo-2,6,12-triazatricyclo[6.4.0.0^2,6]dodeca-1(12),8,10-trien-9-yl}-2-oxo-1,3-benzoxazol-3-yl)ethyl]benzonitrile], the pEC50 in assay [1] is 9.47; in assay [2] it was 8.06.

Regarding `Cc1nnc(-c2c(CCc3ccc(F)cc3)nc3c(c2-c2cnc4c(ccn4Cc4ccc(C#N)c(F)c4)c2)c(=O)n2n3CCC2)o1` [Compound 141, 2-fluoro-4-[(5-(11-[2-(p-fluorophenyl)ethyl]-10-(5-methyl-1,3,4-oxadiazol-2-yl)-7-oxo-2,6,12-triazatricyclo[6.4.0.0]dodeca-1(12),8,10-trien-9-yl}-1H-1,7-diazainden-1-yl)methyl]benzonitrile], the pEC50 in assay [1] is 8.35; in assay [2], 7.13.

On to `Cc1nnc(-c2c(CCc3ccc(F)cc3)nc3c(c2-c2ccc4c(c2)oc(=O)n4Cc2ccc(C#N)cn2)c(=O)n2n3CCC2)o1` [Compound 142, 6-[(6-{11-[2-(p-fluorophenyl)ethyl]-10-(5-methyl-1,3,4-oxadiazol-2-yl)-7-oxo-2,6,12-triazatricyclo[6.4.0.0^2,6]dodeca-1(12),8,10-trien-9-yl}-2-oxo-1,3-benzoxazol-3-yl)methyl]nicotinonitrile], for which the pEC50 was 8.91 in assay [1] and 7.23 in assay [2].

Regarding `Cc1nnc(-c2c(CCC3CCOCC3)nc3c(c2-c2cnc4c(ccn4Cc4ccc(C#N)c(F)c4)c2)C(=O)N[C@H]3C(C)C)o1` [Compound 143, 4-[(5-{(S)-3-isopropyl-6-(5-methyl-1,3,4-oxadiazol-2-yl)-1-oxo-5-[2-(tetrahydro-2H-pyran-4-yl)ethyl]-2,4-diaza-7-indanyl}-1H-1,7-diazainden-1-yl)methyl]-2-fluorobenzonitrile], the pEC50 is 8.20 in assay [1] and 7.10 in assay [2].

For `Cc1nnc(-c2c(CCC34CCC(CC3)OC4)nc3c(c2-c2ccc4c(c2)oc(=O)n4Cc2ccc(C#N)cn2)c(=O)n2n3CCC2)o1` [Compound 144, 6-((6-[10-(5-methyl-1,3,4-oxadiazol-2-yl)-11-(2-(2-oxabicyclo[2.2.2]oct-4-yl)ethyl}-7-oxo-2,6,12-triazatricyclo[6.4.0.0^2,^6]dodeca-1(12),8,10-trien-9-yl]-2-oxo-1,3-benzoxazol-3-yl}methyl)nicotinonitrile], the pEC50 in assay [1] was 8.59; in assay [2], 7.08.

As to `Cc1cc(-c2c(CCC3CCOCC3)nc3c(c2-c2ccc4c(c2)oc(=O)n4Cc2ccc(C#N)cn2)S(=O)(=O)N2CCC[C@@H]32)ccn1` [Compound 145, 6-[(6-((2S)-10-(2-methyl-4-pyridyl)-7,7-dioxo-11-[2-(tetrahydro-2H-pyran-4-yl)ethyl]-7λ^6-thia-6,12-diazatricyclo[6.4.0.0^2,6]dodeca-1(12),8,10-trien-9-yl}-2-oxo-1,3-benzoxazol-3-yl)methyl]nicotinonitrile], the pEC50 is 8.21 in assay [1] and 7.10 in assay [2].

With `COc1ccnc(-c2c(CCC3CCOCC3)nc3c(c2-c2cc4ccnc(N[C@@H]5CCc6ncccc65)c4s2)S(=O)(=O)CC3C(C)C)n1` (stereo partly drawn) [Compound 146, N—(R)-4-aza-1-indanyl(2-(3-isopropyl-6-(4-methoxy-2-pyrimidinyl)-1,1-dioxo-5-[2-(tetrahydro-2H-pyran-4-yl)ethyl]-1λ^6-thia-4-aza-7-indanyl}-1-thia-6-aza-7-indenyl)amine], the pEC50 in assay [1] was 8.39; in assay [2], 7.23.

As to `Cc1nnc(-c2c(CCC34CCC(CC3)OC4)nc3c(c2-c2cc4ccnc(N[C@@H]5CCc6ncccc65)c4s2)c(=O)n2n3CCC2)o1` [Compound 147, 6-((2S)-2-methyl-10-(2-methyl-4-pyridyl)-7-oxo-11-[2-(tetrahydro-2H-pyran-4-yl)ethyl]-6,12-diazatricyclo[6.4.0.0,^1I]dodeca-1(12),8,10-trien-9-yl}-3-[(5-chloro-3-fluoro-2-pyridyl)methyl]-1,3-benzoxazol-2(3H)-one], the pEC50 was 7.76 in assay [1] and 6.74 in assay [2].

With `Cc1cc(-c2c(CCC3CCOCC3)nc3c(c2-c2ccc4c(c2)oc(=O)n4Cc2ncc(Cl)cc2F)C(=O)N2CCC[C@@]32C)ccn1` [Compound 148, 6-((2S)-2-methyl-10-(2-methyl-4-pyridyl)-7-oxo-11-[2-(tetrahydro-2H-pyran-4-yl)ethyl]-6,12-diazatricyclo[6.4.0.0,^1I]dodeca-1(12),8,10-trien-9-yl}-3-[(5-chloro-3-fluoro-2-pyridyl)methyl]-1,3-benzoxazol-2(3H)-one], the pEC50 in assay [1] is 7.19; in assay [2] it was 6.08.

Regarding `CC(C)c1nnc(-c2c(CCC3CCOCC3)nc3c(c2-c2ccc4c(c2)oc(=O)n4Cc2ccc(C#N)c(F)c2)c(=O)n2n3CCC2)o1` [Compound 150, 2-fluoro-4-[(6-(10-(5-isopropyl-1,3,4-oxadiazol-2-yl)-7-oxo-11-[2-(tetrahydro-2H-pyran-4-yl)ethyl]-2,6,12-triazatricyclo[6.4.0.0^2,6]dodeca-1(8),9,11-trien-9-yl}-2-oxo-1,3-benzoxazol-3-yl)methyl]benzonitrile], the pEC50 in assay [1] was 8.73; in assay [2] it was 7.82.

As to `Cc1cc(-c2c(CCC3CCOCC3)nc3c(c2-c2ccc4c(c2)oc(=O)n4Cc2ccc(C#N)c(F)c2)c(=O)n2n3CCC2)ccn1` [Compound 151, 2-fluoro-4-[(6-(10-(2-methyl-4-pyridyl)-7-oxo-11-[2-(tetrahydro-2H-pyran-4-yl)ethyl]-2,6,12-triazatricyclo[6.4.0.0^2,6]dodeca-1(12),8,10-trien-9-yl}-2-oxo-1,3-benzoxazol-3-yl)methyl]benzonitrile], the pEC50 in assay [1] is 8.29; in assay [2], 7.14.

As for `Cc1cnc(-c2c(CCC3CCOCC3)nc3c(c2-c2ccc4c(c2)oc(=O)n4Cc2ccc(C#N)c(F)c2)c(=O)n2n3CCC2)o1` [Compound 152, 2-fluoro-4-[(6-(10-(5-methyl-1,3-oxazol-2-yl)-7-oxo-11-[2-(tetrahydro-2H-pyran-4-yl)ethyl]-2,6,12-triazatricyclo[6.4.0.0^2,6]dodeca-1(12),8,10-trien-9-yl}-2-oxo-1,3-benzoxazol-3-yl)methyl]benzonitrile], the pEC50 in assay [1] is 8.14; in assay [2], 7.40.
